We go through 4 compounds from ChEMBL document CHEMBL1240438, “Identification of potent virtual leads to design novel indoleamine 2,3-dioxygenase inhibitors: pharmacophore modeling and molecular docking studies” (Eur J Med Chem, 2010).

The target of the assay is Indoleamine 2,3-dioxygenase 1 (Homo sapiens, UniProt P14902). Put plainly: Inhibition of 2,3 dioxygenase.
Chain of Indoleamine 2,3-dioxygenase 1 (P14902 whole entry): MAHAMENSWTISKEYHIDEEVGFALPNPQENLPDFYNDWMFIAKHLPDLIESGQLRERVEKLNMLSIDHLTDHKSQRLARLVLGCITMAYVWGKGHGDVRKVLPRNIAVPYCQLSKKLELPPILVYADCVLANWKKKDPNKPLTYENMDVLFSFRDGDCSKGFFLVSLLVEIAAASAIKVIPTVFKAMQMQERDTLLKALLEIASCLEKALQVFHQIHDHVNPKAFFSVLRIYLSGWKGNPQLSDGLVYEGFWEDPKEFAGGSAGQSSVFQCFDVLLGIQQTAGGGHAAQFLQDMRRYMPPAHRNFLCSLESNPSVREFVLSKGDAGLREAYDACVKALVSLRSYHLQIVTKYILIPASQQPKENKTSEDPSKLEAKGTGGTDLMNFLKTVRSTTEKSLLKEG
`CC1(C)OC2=C(C(=O)c3ccccc3C2=O)C2OC21` (centres undefined) had an IC50 of 4950 nM.

In turn, `CC1=C(SCC(NC(=O)CCC(N)C(=O)O)C(=O)NCC(=O)O)C(=O)c2c(O)cccc2C1=O` (centres undefined) gave an IC50 of 880 nM. This IC50 lies about 5.6-fold lower than the previous one.

As for `CCCCNC1C2=C(OC(C)(C)C1O)C(=O)c1ccccc1C2=O` (centres undefined), the IC50 turned out to be 130 nM.

For `CC1(C)C=CC2=C(O1)C(=O)c1cc(O)ccc1C2=O`, the midpoint of inhibition, the IC50, lay at 2000 nM.
